The structures appear in SMILES notation.

The target in one assay is T1, P70S6K (T412E mutant) (Homo sapiens, UniProt P23443, T412E).
T1 construct: purchased Millipore
The assay is described as follows: p70S6K Enzyme Assay. The class given is biochemical. The settings on record: 24 μM ATP, 90 min at 25° C., Caliper mobility shift. In outline: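 Mobile-shift assay: 3 nM P70S6K T412E with 24 μM ATP and 1 μM FITC-labelled S6-derived peptide in Hepes pH 7.5, MgCl2, DTT, Brij; 90 min at 25 °C, stopped with EDTA. Substrate/phosphopeptide ratio separated electrophoretically on Caliper LabChip; IC50 determined.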

The subject of another assay is pS6 MDA-MB-468. The assay is described as follows: Cellular Activity Assay (phospho-S6 in MDA-MB-468 cells). Type of assay: cell-based. The settings on record: Homo sapiens, 2 hr compound incubation, percent pS6-positive cells. In outline:
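MDA-MB-468 cells treated with compound for 2 hr, fixed, then immunostained for phospho-S6 with propidium iodide counterstain. Green (pS6) and red (total) cells counted by laser-scanning cytometry; IC50 derived from percent pS6-positive cells versus compound concentration.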

The target in the next assay is T2, Akt1 (Homo sapiens, UniProt P31749).
T2 construct: 0.1 ng/ul His-AKT (Full Length), (Invitrogen, Part #P2999, Lot #641228C); His; purchased Invitrogen P2999
In words: AKT/PKB Kinase Assay. Type of assay: biochemical. The settings on record: His-AKT (Full Length), 160 uM ATP, 90 min at 25 C. The essentials: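 Full-length His-tagged human AKT1 (0.1 ng/ul) with 1 uM FITC-labelled GRPRTSSFAEG peptide, 160 uM ATP, 1 mM MgCl2, 1 mM DTT in 100 mM HEPES pH 7.5, 90 min at 25 C, EDTA stop. Substrate/product peptides separated by off-chip mobility shift; IC50 fitted from % conversion dose-response.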

For another assay, the target named is T3, Aurora B (Homo sapiens, UniProt Q96GD4).
T3 construct: GST-Aurora B (1-344 amino acids); GST (N); purchased Carna Biosciences 05-102
The assay is described as follows: Aurora B Kinase Assay. Type of assay: biochemical. The settings on record: GST-Aurora B (1-344), 10 uM ATP, 90 min at 25 C. In outline:
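GST-Aurora B (aa 1-344, with His-INCENP) at 0.1 ng/ul, 10 uM ATP and 1 uM FITC-LRRASLG peptide in HEPES pH 7.5 with MgCl2 and DTT, 90 min at 25 C, stopped with EDTA. Substrate-to-product conversion read by off-chip mobility shift; IC50 from sigmoidal dose-response fit.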

T2 sequence (P31749 whole entry): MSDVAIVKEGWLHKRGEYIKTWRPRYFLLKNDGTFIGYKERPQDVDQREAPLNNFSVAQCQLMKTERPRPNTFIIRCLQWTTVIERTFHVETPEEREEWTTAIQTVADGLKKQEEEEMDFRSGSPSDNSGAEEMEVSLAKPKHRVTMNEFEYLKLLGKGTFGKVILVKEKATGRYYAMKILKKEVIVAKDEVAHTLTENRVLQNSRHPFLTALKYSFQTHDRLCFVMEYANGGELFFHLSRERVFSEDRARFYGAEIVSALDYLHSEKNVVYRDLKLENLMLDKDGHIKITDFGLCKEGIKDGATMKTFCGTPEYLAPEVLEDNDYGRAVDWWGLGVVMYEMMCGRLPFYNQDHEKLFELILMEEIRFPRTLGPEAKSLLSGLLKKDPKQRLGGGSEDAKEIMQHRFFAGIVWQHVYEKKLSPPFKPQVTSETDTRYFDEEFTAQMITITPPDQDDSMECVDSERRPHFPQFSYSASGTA
T3 sequence (Q96GD4 whole entry, the tested form may be a part): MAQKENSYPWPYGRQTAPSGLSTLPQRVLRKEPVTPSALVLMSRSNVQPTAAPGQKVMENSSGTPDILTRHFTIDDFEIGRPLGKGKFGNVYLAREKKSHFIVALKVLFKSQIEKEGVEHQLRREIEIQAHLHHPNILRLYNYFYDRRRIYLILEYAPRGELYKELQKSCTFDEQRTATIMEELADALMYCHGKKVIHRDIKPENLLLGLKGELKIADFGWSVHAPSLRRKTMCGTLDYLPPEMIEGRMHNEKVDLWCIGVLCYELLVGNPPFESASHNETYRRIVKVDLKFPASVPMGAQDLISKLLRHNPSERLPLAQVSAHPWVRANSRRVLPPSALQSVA
T3 sequence (Q9NQS7 803-918 partner limits assumed): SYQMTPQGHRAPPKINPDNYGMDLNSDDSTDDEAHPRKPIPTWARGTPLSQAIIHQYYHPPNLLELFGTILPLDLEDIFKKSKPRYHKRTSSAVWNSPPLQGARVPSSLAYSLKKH
T1 sequence (P23443 1-421 T412E limits assumed): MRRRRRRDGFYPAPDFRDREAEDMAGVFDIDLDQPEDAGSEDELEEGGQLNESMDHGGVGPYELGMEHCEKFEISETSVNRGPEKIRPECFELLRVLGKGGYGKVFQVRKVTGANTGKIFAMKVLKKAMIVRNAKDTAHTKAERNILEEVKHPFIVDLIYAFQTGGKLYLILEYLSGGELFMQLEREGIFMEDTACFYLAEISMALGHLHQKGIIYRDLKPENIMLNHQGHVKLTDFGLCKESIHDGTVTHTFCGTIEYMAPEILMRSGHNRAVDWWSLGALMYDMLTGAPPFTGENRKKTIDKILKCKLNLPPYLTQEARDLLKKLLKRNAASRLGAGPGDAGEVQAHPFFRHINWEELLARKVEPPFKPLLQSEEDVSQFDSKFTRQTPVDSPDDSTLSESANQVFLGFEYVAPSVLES

For the compound `COc1cc([C@@H](CN2CCC2)Nc2ncnc3c(C(N)=O)cccc23)ccc1F` [Example 43, 4-[(S)-2-Azetidin-1-yl-1-(4-fluoro-3-methoxy-phenyl)-ethylamino]-quinazoline-8-carboxylic acid amide], the IC50 is 0.004 µM at P70S6K (T412E mutant), 0.484 µM in the assay on pS6 MDA-MB-468, 0.021 µM against Akt1 and 0.069 µM on Aurora B.
For `NC(=O)c1cccc2c(N[C@H](CN3CCC3)c3ccc(F)c(C(F)F)c3)ncnc12` [Example 44, 4-[(S)-2-Azetidin-1-yl-1-(3-difluoromethyl-4-fluoro-phenyl)-ethylamino]-quinazoline-8-carboxylic acid amide], the IC50 was 0.0017 µM on P70S6K (T412E mutant), 0.041 µM in the assay on pS6 MDA-MB-468, 0.0073 µM against Akt1 and 0.075 µM against Aurora B.
In the case of `NC(=O)c1cc(F)cc2c(N[C@H](CN3CCC3)c3ccc(F)c(C(F)(F)F)c3)ncnc12` [Example 45, 4-[(S)-2-Azetidin-1-yl-1-(4-fluoro-3-trifluoromethyl-phenyl)-ethylamino]-6-fluoro-quinazoline-8-carboxylic acid amide], the IC50 is 0.0015 µM at P70S6K (T412E mutant), 0.033 µM in the assay on pS6 MDA-MB-468, 0.0059 µM against Akt1 and 0.29 µM at Aurora B.
The like results for `CC1CN(C[C@@H](Nc2ncnc3c(C(N)=O)cccc23)c2ccc(F)c(C(F)(F)F)c2)C1` [Example 46, 4-[(S)-1-(4-Fluoro-3-trifluoromethyl-phenyl)-2-(3-methyl-azetidin-1-yl)-ethylamino]-quinazoline-8-carboxylic acid amide] were, in that order, 0.0049 µM, 0.427 µM, 0.0075 µM and 0.39 µM.
With `COc1cc(C(N)=O)c2ncnc(N[C@H](CN3CCC3)c3ccc(F)c(C(F)(F)F)c3)c2c1` [Example 47, 4-[(S)-2-Azetidin-1-yl-1-(4-fluoro-3-trifluoromethyl-phenyl)-ethylamino]-6-methoxy-quinazoline-8-carboxylic acid amide], the IC50 at P70S6K (T412E mutant) amounted to 0.0022 µM; in the assay with pS6 MDA-MB-468 it was 0.027 µM; against Akt1, 0.0015 µM; at Aurora B, 0.2 µM.
For `CC1CCN1C[C@@H](Nc1ncnc2c(C(N)=O)cccc12)c1ccc(F)c(C(F)(F)F)c1` (stereo partly drawn) [Example 48, 4-[(S)-1-(4-Fluoro-3-trifluoromethyl-phenyl)-2-(2-methyl-azetidin-1-yl)-ethylamino]-quinazoline-8-carboxylic acid amide], the IC50 was determined as 0.003 µM on P70S6K (T412E mutant), 0.391 µM in the assay on pS6 MDA-MB-468, 0.011 µM against Akt1 and 0.12 µM against Aurora B.
For `NC(=O)c1cccc2c(N[C@H](CN3CC(F)C3)c3ccc(F)c(C(F)(F)F)c3)ncnc12` [Example 49, 4-[(S)-2-(3-Fluoro-azetidin-1-yl)-1-(4-fluoro-3-trifluoromethyl-phenyl)-ethylamino]-quinazoline-8-carboxylic acid amide], the IC50 on P70S6K (T412E mutant) is 0.005 µM; in the assay on pS6 MDA-MB-468, 0.116 µM; at Akt1, 0.016 µM; against Aurora B, 0.54 µM.

In general, IC50 refers to the concentration at which inhibition is half-maximal.

For the origin of these results see patent US8946247B2, “Quinazoline carboxamide azetidines” (Merck Patent GmbH, priority 2010, dated 2015).
